One assay has as its target T1, dP2XB (Dictyostelium discoideum, UniProt Q553Y1).
T1 sequence (Q553Y1 1-369): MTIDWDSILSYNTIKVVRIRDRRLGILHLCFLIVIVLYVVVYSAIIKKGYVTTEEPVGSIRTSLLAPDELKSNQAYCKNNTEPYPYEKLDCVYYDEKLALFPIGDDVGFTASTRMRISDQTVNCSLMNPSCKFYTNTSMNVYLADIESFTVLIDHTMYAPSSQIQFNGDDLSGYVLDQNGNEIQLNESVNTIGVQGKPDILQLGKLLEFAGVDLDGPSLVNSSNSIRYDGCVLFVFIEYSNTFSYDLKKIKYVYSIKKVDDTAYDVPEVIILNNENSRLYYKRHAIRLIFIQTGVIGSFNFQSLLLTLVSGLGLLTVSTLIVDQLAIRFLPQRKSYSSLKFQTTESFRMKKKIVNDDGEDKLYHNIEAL
Description: two-electrode voltage clamp, Xenopus oocytes, peak current. The class given is cell-based. Background: Two-electrode voltage clamp holds a large cell at a set potential and records current.

Assay [1] deals with T2, dP2XE (Dictyostelium discoideum, UniProt Q54JH4).
T2 sequence (Q54JH4 1-388): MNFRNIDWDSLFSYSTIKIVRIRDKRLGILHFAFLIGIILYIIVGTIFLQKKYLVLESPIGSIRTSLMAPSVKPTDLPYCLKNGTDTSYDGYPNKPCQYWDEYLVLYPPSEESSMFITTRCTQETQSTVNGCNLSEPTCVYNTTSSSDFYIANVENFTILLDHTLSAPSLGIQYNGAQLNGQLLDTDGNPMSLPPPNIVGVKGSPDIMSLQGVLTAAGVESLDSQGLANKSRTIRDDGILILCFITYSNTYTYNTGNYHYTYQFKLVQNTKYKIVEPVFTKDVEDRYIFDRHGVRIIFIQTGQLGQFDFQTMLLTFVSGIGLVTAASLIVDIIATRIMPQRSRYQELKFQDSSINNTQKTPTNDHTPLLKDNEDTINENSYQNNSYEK
Description: cell-based.

The target in another assay is dP2XA (Dictyostelium discoideum, UniProt Q86JM7). Description: two-electrode voltage clamp, Xenopus oocytes, peak current. The class given is cell-based.
dP2XA, sequence (Q86JM7 whole entry): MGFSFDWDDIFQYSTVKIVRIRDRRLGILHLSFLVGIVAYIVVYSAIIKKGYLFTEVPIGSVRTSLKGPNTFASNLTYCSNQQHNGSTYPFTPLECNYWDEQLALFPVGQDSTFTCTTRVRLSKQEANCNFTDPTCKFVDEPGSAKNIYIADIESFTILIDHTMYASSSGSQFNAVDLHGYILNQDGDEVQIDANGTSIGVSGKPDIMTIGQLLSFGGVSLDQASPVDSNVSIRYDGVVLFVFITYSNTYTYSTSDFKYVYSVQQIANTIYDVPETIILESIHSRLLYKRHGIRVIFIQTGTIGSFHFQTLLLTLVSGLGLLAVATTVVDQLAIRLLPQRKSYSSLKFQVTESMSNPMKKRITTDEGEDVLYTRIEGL
For assay [2], the target named is T2, dP2XE. Described as above. Type of assay: cell-based. The conditions noted are these: weak partial agonist; ND98K+, pH 6.2, −70 mV, room temperature.

One may read the EC50 as the midpoint of the concentration-response curve.

In the case of `Nc1ncnc2c1ncn2[C@@H]1O[C@H](COP(=O)(O)OP(=O)(O)OP(=O)(O)O)[C@@H](O)[C@H]1O` [ATP], the EC50 at dP2XB came to 266 µM; at dP2XE [1], 511 µM; at dP2XA, 97 µM.
Regarding `Nc1ncnc2c1ncn2[C@@H]1O[C@H](COP(=O)(O)OP(=O)(O)NP(=O)(O)O)[C@@H](O)[C@H]1O` [β,γ-Imido-ATP], the EC50 at dP2XB turned out to be 85 µM; at dP2XA, 3.1 µM. The “maximal response, % that of ATP” value at dP2XE [2] is listed as 22.3 ± 6.4%.
